Where “and” joins values, the source holds several entries; their conditions need not be identical. Identical values can stand only once. Like-named read-outs stand apart in the source and are kept apart here.
Tests used:
Test in all cases: Chymotrypsin coupled prolyl-isomerase assay
[1] = biological target: Cyp40 (Homo sapiens, UniProt Q08752); conditions: for prolyl-isomerase activity (raw dose-response value): in s^-1
Protocol: Adapting a previously described protocol, with an Agilent Bravo Velocity 11 with a 384ST head, 90 µL assay buffer (25 mM HEPES pH 7.3, 100 mM NaCl, 0.01% Triton X-100) containing 5.28 nM cyclophilin was added into a flat, clear-bottom, black 384-well plate pre-chilled in a Corning CoolBox at 2–3 °C. Five microliters of compound pre-dissolved in 5% DMSO/assay buffer was then added to appropriate wells and incubated at 2–3 °C for 5 min. Five microliters of 0.5 mM α-chymotrypsin from bovine pancreas (Type II, lyophilized powder, Millipore-Sigma) in 20% 1 mM HCl/Assay Buffer was then added to each well and incubated at 2–3 °C for 5 min. The plate was then quickly transferred to a FLIPR Tetra High-Throughput Cellular Screening System (Molecular Devices). Using the internal liquid handling system of the FLIPR, 1 µL 0.5 mM Suc-AAPF-AMC (Chymotrypsin Substrate II, Millipore-Sigma) dissolved in 0.55 M LiCl/2,2,2-trifluoroethanol was added to each well, which was then mixed for 5 s, followed by immediate fluorescence measurements every 1 s for 330 s using a 360–380 nm excitation LED module and a 400–460 nm emission filter. Final concentrations of the plate include 5 nM cyclophilin, 0.25% DMSO, 25 µM α-chymotrypsin, 5 µM Suc-AAPF-AMC. Raw fluorescence data was analyzed by non-linear regression analysis with Prism v.9 by fitting one-phase association curves to each well. […] Rate constants calculated for each well (s^−1) were then normalized to substrate only (no prolyl-isomerase) and enzyme + substrate only controls. IC50 values were calculated as the value at which 50% inhibition was achieved on the non-linear regression fitted curve of each compound.

[2] = biological target: T1, NKTR (Homo sapiens, UniProt P30414); assay type: biochemical; conditions: for prolyl-isomerase activity (raw dose-response value): NKTR
T1 construct: NKTR (UniProtKB Entry P30414: residues 7–179); host or cells: E. coli BL21(DE3)
T1 sequence (P30414 7-179): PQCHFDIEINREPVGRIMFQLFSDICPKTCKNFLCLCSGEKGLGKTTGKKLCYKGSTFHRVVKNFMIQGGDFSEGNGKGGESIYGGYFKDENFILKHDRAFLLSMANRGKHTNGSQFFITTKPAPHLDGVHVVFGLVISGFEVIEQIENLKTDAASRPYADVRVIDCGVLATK
Protocol: Adapting a previously described protocol[51], with an Agilent Bravo Velocity 11 with a 384ST head, 90 µL assay buffer (25 mM HEPES pH 7.3, 100 mM NaCl, 0.01% Triton X-100) containing 5.28 nM cyclophilin was added into a flat, clear-bottom, black 384-well plate pre-chilled in a Corning CoolBox at 2–3 °C. Five microliters of compound pre-dissolved in 5% DMSO/assay buffer was then added to appropriate wells and incubated at 2–3 °C for 5 min. Five microliters of 0.5 mM α-chymotrypsin from bovine pancreas (Type II, lyophilized powder, Millipore-Sigma) in 20% 1 mM HCl/Assay Buffer was then added to each well and incubated at 2–3 °C for 5 min. […] Using the internal liquid handling system of the FLIPR, 1 µL 0.5 mM Suc-AAPF-AMC (Chymotrypsin Substrate II, Millipore-Sigma) dissolved in 0.55 M LiCl/2,2,2-trifluoroethanol was added to each well, which was then mixed for 5 s, followed by immediate fluorescence measurements every 1 s for 330 s using a 360–380 nm excitation LED module and a 400–460 nm emission filter. Final concentrations of the plate include 5 nM cyclophilin, 0.25% DMSO, 25 µM α-chymotrypsin, 5 µM Suc-AAPF-AMC. Raw fluorescence data was analyzed by non-linear regression analysis with Prism v.9 by fitting one-phase association curves to each well. Analyses were halted after the calculated maximum fluorescent value owing to observed fluorescent bleaching during the sustained fluorescent plateau. Rate constants calculated for each well (s^−1) were then normalized to substrate only (no prolyl-isomerase) and enzyme + substrate only controls. IC50 values were calculated as the value at which 50% inhibition was achieved on the non-linear regression fitted curve of each compound.

[3] = biological target: CypD (Homo sapiens, UniProt P30405); conditions: for prolyl-isomerase activity (raw dose-response value): CypD
CypD, sequence (P30405 45-207): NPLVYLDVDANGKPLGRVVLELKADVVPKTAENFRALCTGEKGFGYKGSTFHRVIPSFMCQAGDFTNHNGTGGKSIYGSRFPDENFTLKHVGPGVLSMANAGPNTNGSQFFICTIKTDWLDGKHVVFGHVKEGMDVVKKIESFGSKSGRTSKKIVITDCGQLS

[4] = biological target: T2, PPWD1 (Homo sapiens, UniProt Q96BP3); assay type: biochemical; conditions: for IC50: wild-type PPWD1, read-out: Wild-Type Cyclophilin Prolyl Isomerase Inhibition IC50 Values, PPWD1; for prolyl-isomerase activity (raw dose-response value): in s^-1
T2 construct: PPWD1 (UniProtKB Entry Q96BP3: residues 473–646); host or cells: E. coli BL21(DE3)
T2 sequence (Q96BP3 473-646): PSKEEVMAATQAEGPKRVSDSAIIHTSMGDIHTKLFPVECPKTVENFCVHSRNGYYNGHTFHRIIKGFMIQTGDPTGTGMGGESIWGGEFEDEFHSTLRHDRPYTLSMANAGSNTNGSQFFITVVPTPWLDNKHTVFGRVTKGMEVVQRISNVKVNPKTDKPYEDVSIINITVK
Protocol: Five microliters of compound pre-dissolved in 5% DMSO/assay buffer was then added to appropriate wells and incubated at 2–3 °C for 5 min. Five microliters of 0.5 mM α-chymotrypsin from bovine pancreas (Type II, lyophilized powder, Millipore-Sigma) in 20% 1 mM HCl/Assay Buffer was then added to each well and incubated at 2–3 °C for 5 min. The plate was then quickly transferred to a FLIPR Tetra High-Throughput Cellular Screening System (Molecular Devices). Using the internal liquid handling system of the FLIPR, 1 µL 0.5 mM Suc-AAPF-AMC (Chymotrypsin Substrate II, Millipore-Sigma) dissolved in 0.55 M LiCl/2,2,2-trifluoroethanol was added to each well, which was then mixed for 5 s, followed by immediate fluorescence measurements every 1 s for 330 s using a 360–380 nm excitation LED module and a 400–460 nm emission filter. […] Raw fluorescence data was analyzed by non-linear regression analysis with Prism v.9 by fitting one-phase association curves to each well. Analyses were halted after the calculated maximum fluorescent value owing to observed fluorescent bleaching during the sustained fluorescent plateau. Rate constants calculated for each well (s^−1) were then normalized to substrate only (no prolyl-isomerase) and enzyme + substrate only controls.

[5] = read-out: Wild-Type Cyclophilin Prolyl Isomerase Inhibition IC50 Values, Cyp40, wild-type Cyp40
[6] = wild-type NKTR, read-out: Wild-Type Cyclophilin Prolyl Isomerase Inhibition IC50 Values, NKTR
[7] = read-out: Wild-Type Cyclophilin Prolyl Isomerase Inhibition IC50 Values, CypD, wild-type CypD

Cyp40, sequence (Q08752 1-183): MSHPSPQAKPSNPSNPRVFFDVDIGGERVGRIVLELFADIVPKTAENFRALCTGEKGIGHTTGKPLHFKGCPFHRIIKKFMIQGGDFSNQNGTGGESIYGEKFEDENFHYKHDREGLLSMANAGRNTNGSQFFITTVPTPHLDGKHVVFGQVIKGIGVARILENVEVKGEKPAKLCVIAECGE

C[N+]1=C(C=CC=CC=C2N(CCCCCC(=O)NCCNC(=O)C3CCNC(=O)C=CC(=O)N4CCCC(Cc5ccccc5)(C4)C(=O)NC(Cc4ccc(-c5ccc(CC(C(=O)O)C(=O)O)cc5)cc4)C(=O)NCc4ccccc4CC(=O)N3)c3ccccc3C2(C)C)C(C)(C)c2ccccc21 (centres unmarked) [*B52-Cy5]
IC50 [1, 5]: > 10 µM | IC50 [2, 6]: > 10 µM | CypD prolyl-isomerase inhibition (in words) [3]: do not inhibit CypD in vitro | IC50 [3, 7]: > 10 µM | IC50 [4]: > 10 µM

C[N+]1=C(C=CC=CC=C2N(CCCCCC(=O)NCCNC(=O)C3CCNC(=O)C=CC(=O)N4CCCC(Cc5ccccc5)(C4)C(=O)NC(Cc4ccc(-c5ccc(C(CC(=O)O)CC(=O)O)cc5)cc4)C(=O)NCc4ccccc4CC(=O)N3)c3ccccc3C2(C)C)C(C)(C)c2ccccc21 (centres unmarked) [*B53-Cy5]
IC50 [1, 5]: > 10 µM | IC50 [2, 6]: > 10 µM | CypD prolyl-isomerase inhibition (in words) [3]: do not inhibit CypD in vitro | IC50 [3, 7]: > 10 µM | IC50 [4]: > 10 µM

NCCOCCNC(=O)[C@@H]1CCNC(=O)/C=C/C(=O)N2CCC[C@](Cc3ccccc3)(C2)C(=O)N[C@@H](Cc2ccc(C(=O)c3ccccc3)cc2)C(=O)NCc2ccccc2CC(=O)N1 [Compound B1]
prolyl-isomerase activity (raw dose-response value) ([1]; Cyp40, dose 0.0228624 µM): 0.05537 and 0.05091 and 0.0526 | prolyl-isomerase activity (raw dose-response value) ([1]; Cyp40, dose 0.0685871 µM): 0.04831 and 0.04914 and 0.04761 | prolyl-isomerase activity (raw dose-response value) ([1]; Cyp40, dose 0.205761 µM): 0.03428 and 0.03147 and 0.03197 | prolyl-isomerase activity (raw dose-response value) ([1]; Cyp40, dose 0.617284 µM): 0.02396 and 0.01982 and 0.02092 | prolyl-isomerase activity (raw dose-response value) ([1]; Cyp40, dose 1.85185 µM): 0.01751 and 0.01672 and 0.01432 | prolyl-isomerase activity (raw dose-response value) ([1]; Cyp40, dose 5.55556 µM): 0.0143 and 0.01339 and 0.01386 | prolyl-isomerase activity (raw dose-response value) ([1]; Cyp40, dose 16.6667 µM): 0.01332 and 0.01439 and 0.01303 | prolyl-isomerase activity (raw dose-response value) ([1]; Cyp40, dose 50 µM): 0.01384 and 0.01317 and 0.01466 | IC50 ([1]; Wild-Type Cyclophilin Prolyl Isomerase Inhibition IC50 Values, Cyp40, wild-type Cyp40): 0.05 µM | prolyl-isomerase activity (raw dose-response value) ([2]; dose 6.125 µM): 0.03455 and 0.03286 and 0.03325 | prolyl-isomerase activity (raw dose-response value) ([2]; dose 12.5 µM): 0.03629 and 0.03152 and 0.03174 | prolyl-isomerase activity (raw dose-response value) ([2]; dose 25 µM): 0.03462 and 0.03246 and 0.03111 | prolyl-isomerase activity (raw dose-response value) ([2]; dose 50 µM): 0.03275 and 0.03195 and 0.02857 | prolyl-isomerase activity (raw dose-response value) ([2]; dose 100 µM): 0.02401 and 0.02915 and 0.0269 | IC50 [2, 6]: > 100 µM | IC50 [3]: 0.04 µM | prolyl-isomerase activity (raw dose-response value) ([3]; dose 0.00244141 µM): 0.1167 and 0.1009 and 0.132 | prolyl-isomerase activity (raw dose-response value) ([3]; dose 0.00488281 µM): 0.1171 and 0.1006 and 0.1105 | prolyl-isomerase activity (raw dose-response value) ([3]; dose 0.00976562 µM): 0.1045 and 0.1074 and 0.1165 | prolyl-isomerase activity (raw dose-response value) ([3]; dose 0.0195312 µM): 0.0977 and 0.1005 and 0.09149 | prolyl-isomerase activity (raw dose-response value) ([3]; dose 0.0390625 µM): 0.07882 and 0.0807 and 0.08119 | prolyl-isomerase activity (raw dose-response value) ([3]; dose 0.078125 µM): 0.05821 and 0.05418 and 0.05518 | prolyl-isomerase activity (raw dose-response value) ([3]; dose 0.15625 µM): 0.03845 and 0.03512 and 0.03854 | prolyl-isomerase activity (raw dose-response value) ([3]; dose 0.3125 µM): 0.0261 and 0.02523 and 0.02516 | prolyl-isomerase activity (raw dose-response value) ([3]; dose 0.625 µM): 0.0197 and 0.01788 and 0.01929 | prolyl-isomerase activity (raw dose-response value) ([3]; dose 1.25 µM): 0.01434 and 0.01347 and 0.01416 | prolyl-isomerase activity (raw dose-response value) ([3]; dose 2.5 µM): 0.009932 and 0.009111 and 0.008108 | prolyl-isomerase activity (raw dose-response value) ([4]; PPWD1, dose 0.00244141 µM): 0.05276 and 0.05431 and 0.05271 | prolyl-isomerase activity (raw dose-response value) ([4]; PPWD1, dose 0.00488281 µM): 0.05268 and 0.05435 and 0.05318 | prolyl-isomerase activity (raw dose-response value) ([4]; PPWD1, dose 0.00976562 µM): 0.05613 and 0.05695 and 0.05468 | prolyl-isomerase activity (raw dose-response value) ([4]; PPWD1, dose 0.0195312 µM): 0.05207 and 0.05349 and 0.04937 | prolyl-isomerase activity (raw dose-response value) ([4]; PPWD1, dose 0.0390625 µM): 0.05208 and 0.05238 and 0.05082 | prolyl-isomerase activity (raw dose-response value) ([4]; PPWD1, dose 0.078125 µM): 0.04871 and 0.04927 and 0.04631 | prolyl-isomerase activity (raw dose-response value) ([4]; PPWD1, dose 0.15625 µM): 0.04828 and 0.0525 and 0.04634 | prolyl-isomerase activity (raw dose-response value) ([4]; PPWD1, dose 0.3125 µM): 0.04787 and 0.04701 and 0.04264 | prolyl-isomerase activity (raw dose-response value) ([4]; PPWD1, dose 0.625 µM): 0.04382 and 0.04097 and 0.03416 | prolyl-isomerase activity (raw dose-response value) ([4]; PPWD1, dose 1.25 µM): 0.03009 and 0.02964 and 0.0254 | prolyl-isomerase activity (raw dose-response value) ([4]; PPWD1, dose 2.5 µM): 0.02331 and 0.02391 and 0.0225 | IC50 [4]: 1.4 µM

NC(=O)[C@@H]1CCNC(=O)/C=C/C(=O)N2CCC[C@](Cc3ccccc3)(C2)C(=O)N[C@@H](Cc2ccc(-c3cccc(B(O)O)c3)cc2)C(=O)NCc2ccccc2CC(=O)N1 [Compound C6A]
IC50 ([2]; prolyl-isomerase inhibition, 5 nM cyclophilin, read-out: IC50 NKTR): > 10 µM | IC50 [2, 6]: 5 µM | IC50 [3, 7]: 1.1 µM | IC50 [4]: > 10 µM

Source: publication PMC9596378, “Discovery and molecular basis of subtype-selective cyclophilin inhibitors” (Nature Chemical Biology, 2022)
